Laboratory results published in patent EP0580161A1, “Prophylactic and therapeutic treatment of Alzheimer's disease” (THE McLEAN HOSPITAL CORPORATION, priority 1992, dated 1994).
Where two headings read alike, the source gives them in different places. Residues, ends and D or L forms follow the SMILES beside them. *: point of attachment. Cbz = O=C(OCc1ccccc1)*

Key:
[1] = tested on: mouse; details: cited from earlier work
[2] = target: T1, m-calpain (Rattus norvegicus, UniProt Q07009); test: calpain inhibitory activity; format: biochemical; details: m-calpain extracted and purified from rat brain; read-out: calpain inhibitory activity IC₅₀
T1 construct: m-calpain which was extracted and purified from rat brain; from tissue; host or cells: rat brain
T1 sequence (Q07009 20-700 limits assumed): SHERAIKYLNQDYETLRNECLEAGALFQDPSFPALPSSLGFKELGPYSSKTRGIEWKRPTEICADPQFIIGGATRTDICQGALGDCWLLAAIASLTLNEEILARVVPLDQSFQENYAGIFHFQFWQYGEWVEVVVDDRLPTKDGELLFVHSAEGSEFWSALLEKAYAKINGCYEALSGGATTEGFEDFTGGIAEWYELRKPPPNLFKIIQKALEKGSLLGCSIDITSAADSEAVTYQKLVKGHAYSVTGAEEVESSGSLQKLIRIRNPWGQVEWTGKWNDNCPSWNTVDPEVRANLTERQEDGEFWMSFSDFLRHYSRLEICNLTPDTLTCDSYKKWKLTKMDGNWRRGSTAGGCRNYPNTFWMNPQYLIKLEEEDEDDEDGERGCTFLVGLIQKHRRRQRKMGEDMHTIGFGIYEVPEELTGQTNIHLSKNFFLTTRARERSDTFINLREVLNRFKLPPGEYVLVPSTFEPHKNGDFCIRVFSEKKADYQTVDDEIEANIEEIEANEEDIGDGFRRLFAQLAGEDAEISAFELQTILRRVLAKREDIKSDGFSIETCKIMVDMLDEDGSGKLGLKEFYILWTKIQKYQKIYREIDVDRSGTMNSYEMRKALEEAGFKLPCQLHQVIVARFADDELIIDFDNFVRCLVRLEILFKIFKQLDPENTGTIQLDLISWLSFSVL
T1 sequence (Q64537 1-270 partner): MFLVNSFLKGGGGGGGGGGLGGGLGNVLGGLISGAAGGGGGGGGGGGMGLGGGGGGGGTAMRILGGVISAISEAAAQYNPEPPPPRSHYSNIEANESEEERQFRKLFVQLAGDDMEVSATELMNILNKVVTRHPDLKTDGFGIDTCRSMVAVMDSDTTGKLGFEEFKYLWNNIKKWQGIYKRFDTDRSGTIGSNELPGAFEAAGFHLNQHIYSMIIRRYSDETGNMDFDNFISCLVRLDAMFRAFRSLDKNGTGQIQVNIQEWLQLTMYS
Protocol: According to the method previously described (Journal of Biological Chemistry, 259, 12489 (1984)), inhibitory activity of several compounds were determined with m-calpain which was extracted and purified from rat brain by means of the method described in Journal of Biological Chemistry, 259, 3210 (1984). The results are summarized in the following table in which the data for NCO-700 (Arzneimittel Forschung/Drug Research 36, 190 (1986)) and for MDL 28170 (Biochemical and Biophysical Research Communications, 157, 1117 (1988)) are those disclosed in the references.

[3] = target: calpain; details: cited from earlier work
[4] = target: T2, calpain I (Homo sapiens, UniProt P07384); test: conversion of 80KDa calpain I to 76KDa form in erythrocyte incubated with calcium; format: cell-based; details: human erythrocyte incubated in the presence of calcium
T2 construct: endogenous in cells; host or cells: human erythrocyte
T2 sequence (P07384 1-714): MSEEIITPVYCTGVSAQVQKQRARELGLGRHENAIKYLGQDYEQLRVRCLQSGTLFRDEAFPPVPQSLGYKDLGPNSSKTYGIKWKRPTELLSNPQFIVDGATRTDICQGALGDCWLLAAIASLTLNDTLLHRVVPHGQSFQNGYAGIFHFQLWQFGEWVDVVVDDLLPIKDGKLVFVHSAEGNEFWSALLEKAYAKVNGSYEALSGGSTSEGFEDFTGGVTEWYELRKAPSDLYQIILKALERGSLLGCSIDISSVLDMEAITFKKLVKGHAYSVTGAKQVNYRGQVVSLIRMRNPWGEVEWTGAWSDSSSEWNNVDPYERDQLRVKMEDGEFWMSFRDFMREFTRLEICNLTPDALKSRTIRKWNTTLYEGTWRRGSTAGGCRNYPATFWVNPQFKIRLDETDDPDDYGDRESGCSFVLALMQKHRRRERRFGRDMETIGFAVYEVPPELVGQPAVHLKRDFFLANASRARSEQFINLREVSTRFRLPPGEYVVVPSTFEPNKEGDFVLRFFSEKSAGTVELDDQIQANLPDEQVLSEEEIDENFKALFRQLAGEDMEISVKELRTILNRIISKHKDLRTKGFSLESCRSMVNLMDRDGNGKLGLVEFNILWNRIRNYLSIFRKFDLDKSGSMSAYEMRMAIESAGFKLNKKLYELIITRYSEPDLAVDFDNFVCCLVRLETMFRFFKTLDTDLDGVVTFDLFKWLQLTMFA
T2 sequence (P04632 1-268 partner): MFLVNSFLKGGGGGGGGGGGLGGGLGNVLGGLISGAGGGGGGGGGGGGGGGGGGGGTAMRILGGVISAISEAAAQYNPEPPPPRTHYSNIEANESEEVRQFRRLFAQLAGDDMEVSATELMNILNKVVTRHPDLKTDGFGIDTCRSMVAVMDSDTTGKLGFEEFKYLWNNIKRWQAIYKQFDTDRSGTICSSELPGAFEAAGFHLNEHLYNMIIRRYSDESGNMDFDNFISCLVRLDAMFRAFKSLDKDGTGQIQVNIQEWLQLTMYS
Description: Calpain I is partially purified from post-mortem brain. Fraction containing crude calpain I is subjected to electrophoresis, and reacted with monoclonal antibody to human calpain I (Biochemical Journal, 246, 481 (1987); Biochemical Journal, 261, 1039 (1989)) to show three bands. Molecular weights of these bands are 80KDa, 78KDa, and 76KDa, respectively, and are identical to those in erythrocyte (Biochemical Journal, 246, 482 (1987); Biochemical Journal, 261, 1039 (1989)). When human erythrocyte is incubated in the presence of calcium, the 80KDa band disappears and the 76KDa band appears. This reaction is inhibited by leupeptine which is a calpain inhibitor. Furthermore, there exists a good correlation between the amount of the 76KDa protein and the enzyme activity. […] This transformation from 80KDa to 76KDa in the presence of calcium can also be observed with slice specimens of post-mortem human brain.

SMILES	LD₅₀ ([1]; po) [mg/kg]	IC50 [2] [µM]	other results
CC(C)CCNC(=O)[C@H](CC(C)C)NC(=O)[C@H]1O[C@@H]1C(=O)O [E-64-c]	> 2000	–	–
CCOC(=O)[C@H]1O[C@@H]1C(=O)N[C@@H](CC(C)C)C(=O)NCCC(C)C [E-64-d]	> 2000	–	–
CC(C)CC(NC(=O)[C@H]1O[C@@H]1C(=O)O)C(=O)NCCCCNC(=N)N (some centres unmarked) [E-64]	> 2000	0.96	–
CC(C)[C@H](NC(=O)OCc1ccccc1)C(=O)N[C@H](C=O)Cc1ccccc1 [MDL 28170] (Cbz-Val-Phe-aldehyde)	–	–	Ki ([3]; value disclosed in Biochemical and Biophysical Research Communications, 157, 1117 (1988), read-out: calpain inhibitory activity Ki): 0.007 µM
CCOC(=O)[C@@H]1O[C@H]1C(=O)NC(CC(C)C)C(=O)N1CCN(Cc2ccc(OC)c(OC)c2OC)CC1.CCOC(=O)[C@@H]1O[C@H]1C(=O)NC(CC(C)C)C(=O)N1CCN(Cc2ccc(OC)c(OC)c2OC)CC1.O=S(=O)(O)O (some centres unmarked) [NCO-700]	–	–	IC50 ([3]; value disclosed in Arzneimittel Forschung/Drug Research 36, 190 (1986), read-out: calpain inhibitory activity IC₅₀): 46 µM; LD₅₀ ([1]; iv): 374 mg/kg
CCCCC(C=O)NC(=O)C(CC(C)C)NC(=O)OCc1ccccc1 (centres unmarked) [carpeptine]	–	0.046	–
NC(N)=NCCCCNC(=O)[C@H](Cc1ccccc1)NC(=O)C1OC1C(=O)O (some centres unmarked) [estatine A]	–	–	LD₅₀ ([1]; ip): > 400 mg/kg
CC(=O)NC(CC(C)C)C(=O)NC(CC(C)C)C(=O)NC(C=O)CCCNC(=N)N (centres unmarked) [leupeptine]	–	0.36	disappearance of 80KDa band and appearance of 76KDa band of calpain I [4]: inhibited
